Values of other authors in US4904678A, “Sickle cell anemia control” (Norris; Jerome J., priority 1987, dated 1990).

Tested on: erythrocytes
Settings: about 4 mols of potassium cyanate incorporated per mol of hemoglobin tetramer

SMILES: N#CO [potassium cyanate]
- Erythrocytes prevented from sickling: up to 80%
